From ChEMBL document CHEMBL1201862, “PubChem BioAssay data set” (2004)
Calls of active or inactive are those of the source. Unless noted, the rule behind the calls is not given here.

Legend:
MDCK [1] = experiment: MDCK cell cytotoxicity, dose response, cytotoxicity control (AID 540296); format: functional; conditions: Canis lupus familiaris
Vero = experiment: Vero E6 cell cytotoxicity, dose response, cytotoxicity control (AID 540298); format: functional; conditions: Chlorocebus sabaeus
MDCK [2] = experiment: antiviral activity against H1N1 influenza, dose response, cell-based, strain KY136 (AID 540257); format: functional; conditions: Canis lupus familiaris
[3] = target: T1, High affinity choline transporter 1 (Homo sapiens, UniProt Q9GZV3); experiment: CHT activators, dose response, cell-based, 10-point CRC, membrane potential dye (AID 602376); format: functional
T1 sequence (Q9GZV3 whole entry): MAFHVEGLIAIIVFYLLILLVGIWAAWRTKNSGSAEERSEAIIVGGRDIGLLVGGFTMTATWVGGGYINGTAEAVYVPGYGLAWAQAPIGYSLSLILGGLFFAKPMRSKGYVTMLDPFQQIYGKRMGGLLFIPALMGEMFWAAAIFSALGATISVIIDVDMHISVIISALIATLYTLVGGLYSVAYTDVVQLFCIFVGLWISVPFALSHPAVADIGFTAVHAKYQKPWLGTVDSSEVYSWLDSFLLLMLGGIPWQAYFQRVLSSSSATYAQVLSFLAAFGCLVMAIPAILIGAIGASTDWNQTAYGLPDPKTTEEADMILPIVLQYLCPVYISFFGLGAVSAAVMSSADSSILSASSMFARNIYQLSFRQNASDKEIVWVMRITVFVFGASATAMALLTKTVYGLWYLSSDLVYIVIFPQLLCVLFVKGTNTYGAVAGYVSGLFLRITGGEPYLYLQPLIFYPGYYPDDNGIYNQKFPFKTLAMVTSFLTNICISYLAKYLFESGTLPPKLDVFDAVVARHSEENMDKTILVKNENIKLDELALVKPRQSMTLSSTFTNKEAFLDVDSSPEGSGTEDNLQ

[4] = Late-stage probe development counterscreen for inhibitors of the Hepatitis C Virus non-structural protein 3 helicase (NS3): luminescence-based cell-based dose response assay to determine whether compounds that inhibit replication of HCV RNA replicon are cytotoxic. [Related pubchem assays (depositor defined):AID1800, AID1830, AID1845, AID1943, AID1945, AID2172, AID2173, AID2474, AID2476]; format: functional
NS3 = NS3 (Hepatitis C virus, UniProt A3EZJ3); experiment: PubChem AID 2173; parameters: species or system Hepacivirus hominis
NS3, sequence (A3EZJ3 whole entry): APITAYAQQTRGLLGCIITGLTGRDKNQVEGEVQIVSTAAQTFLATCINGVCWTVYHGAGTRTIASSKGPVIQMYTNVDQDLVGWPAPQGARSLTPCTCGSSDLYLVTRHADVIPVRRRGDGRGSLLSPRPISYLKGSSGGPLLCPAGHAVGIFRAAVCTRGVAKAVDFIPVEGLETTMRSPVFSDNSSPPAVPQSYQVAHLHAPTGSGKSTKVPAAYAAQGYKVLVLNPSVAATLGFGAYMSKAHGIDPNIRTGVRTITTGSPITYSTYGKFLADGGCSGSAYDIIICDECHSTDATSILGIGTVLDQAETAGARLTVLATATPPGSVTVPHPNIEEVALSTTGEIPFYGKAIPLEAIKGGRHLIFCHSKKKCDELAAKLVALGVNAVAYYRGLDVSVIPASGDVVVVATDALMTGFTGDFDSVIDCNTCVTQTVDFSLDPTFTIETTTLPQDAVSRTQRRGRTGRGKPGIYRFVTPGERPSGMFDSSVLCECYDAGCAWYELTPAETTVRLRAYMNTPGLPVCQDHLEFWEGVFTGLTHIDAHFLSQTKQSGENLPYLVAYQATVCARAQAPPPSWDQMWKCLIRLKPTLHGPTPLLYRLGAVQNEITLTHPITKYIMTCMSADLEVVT

[5] = target: Luciferin 4-monooxygenase (Photuris pensylvanica, UniProt Q27757); experiment: firefly luciferase enzyme inhibitors, dose response, counter-screen for HSF-1 reporter inhibitor project, biochemical, Cell Titer Glo, luminescence, cherry-picks (AID 588847)
Luciferin 4-monooxygenase, sequence (Q27757 whole entry): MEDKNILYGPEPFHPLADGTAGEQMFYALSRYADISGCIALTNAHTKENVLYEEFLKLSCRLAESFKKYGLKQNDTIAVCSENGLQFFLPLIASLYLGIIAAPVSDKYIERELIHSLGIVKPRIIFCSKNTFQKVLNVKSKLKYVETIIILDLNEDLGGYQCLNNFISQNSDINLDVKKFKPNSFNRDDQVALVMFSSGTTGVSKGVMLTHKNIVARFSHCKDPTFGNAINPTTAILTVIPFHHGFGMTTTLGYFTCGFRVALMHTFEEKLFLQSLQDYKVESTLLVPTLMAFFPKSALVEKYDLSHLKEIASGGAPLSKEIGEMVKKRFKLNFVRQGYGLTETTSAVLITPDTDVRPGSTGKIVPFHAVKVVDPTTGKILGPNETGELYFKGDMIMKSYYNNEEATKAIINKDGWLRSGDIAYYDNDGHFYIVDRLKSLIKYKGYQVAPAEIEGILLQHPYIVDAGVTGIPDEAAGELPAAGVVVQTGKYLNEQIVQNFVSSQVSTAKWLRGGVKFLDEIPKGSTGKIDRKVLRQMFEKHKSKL

[6] = target: Heat shock protein HSP 90-alpha (Homo sapiens, UniProt P07900); experiment: Luminescence-based dose response biochemical high throughput screening assay for inhibitors of the Heat Shock Protein 90 (HSP90). [Related pubchem assays: 1831 (Summary AID.), 1846 (Confirmation screen.), 1789 (Primary screen.)]
[7] = target: Beta-adrenergic receptor kinase 1 (Homo sapiens, UniProt P25098); experiment: GRK2 inhibitors displacing RNA aptamer, dose response, biochemical, flow cytometry beads, FAM-aptamer, powder set 1 (AID 588720)
Beta-adrenergic receptor kinase 1, sequence (P25098 whole entry): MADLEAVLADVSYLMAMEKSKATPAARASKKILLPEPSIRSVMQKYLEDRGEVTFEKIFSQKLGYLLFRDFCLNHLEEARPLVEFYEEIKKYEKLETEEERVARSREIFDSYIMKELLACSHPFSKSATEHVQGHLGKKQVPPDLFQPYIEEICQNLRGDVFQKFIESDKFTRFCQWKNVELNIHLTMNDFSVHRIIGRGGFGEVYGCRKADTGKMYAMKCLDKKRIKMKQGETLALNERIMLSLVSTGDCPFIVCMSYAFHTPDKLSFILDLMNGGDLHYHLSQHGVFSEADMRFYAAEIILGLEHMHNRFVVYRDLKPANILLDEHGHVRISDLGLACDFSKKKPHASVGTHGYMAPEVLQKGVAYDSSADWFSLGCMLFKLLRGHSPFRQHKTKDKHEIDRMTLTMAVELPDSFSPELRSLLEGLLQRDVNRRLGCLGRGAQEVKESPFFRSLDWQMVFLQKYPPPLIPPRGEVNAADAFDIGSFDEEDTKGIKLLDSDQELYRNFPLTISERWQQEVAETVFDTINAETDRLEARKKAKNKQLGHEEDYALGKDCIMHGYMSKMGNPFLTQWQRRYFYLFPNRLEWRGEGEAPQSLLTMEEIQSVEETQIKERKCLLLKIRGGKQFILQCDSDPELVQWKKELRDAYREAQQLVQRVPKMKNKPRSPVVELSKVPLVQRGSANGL

[8] = Vero cell cytotoxicity, cytotoxicity control for M. tuberculosis inhibitor project, purified and synthesized samples, set 3 (AID 504684); format: functional
[9] = A Cell Based Secondary Assay to Explore Cytotoxicity in HepG2 Cells of Compounds that Modulate Mycobacterium tuberculosis in Media Containing Glycerol versus Media without Glycerol (2).; format: functional
Candida albicans [10] = experiment: growth inhibition of resistant C. albicans, dose response, CaCi-8 strain, fluconazole, dry powder, set 4 (AID 488950); format: functional, organism-based
NIH3T3 = experiment: cytotoxicity in NIH-3T3 fibroblasts, dose response, cytotoxicity control for antifungal drug resistance project, cell-based, Alamar Blue, fluconazole, dry powder (AID 488809); format: functional; conditions: Mus musculus
Candida albicans [11] = experiment: growth inhibition of resistant C. albicans, dose response, CaCi-8, fluconazole, Alamar Blue, dry powder (AID 488807); format: functional, organism-based
[12] = target: Dual specificity protein kinase CLK1 (Homo sapiens, UniProt P49759); experiment: CLK1 kinase inhibitors, off-target check, dose response, selectivity assay for Dyrk1A inhibitor project, biochemical, cherry-picked samples (AID 588811)
[13] = target: Cyclin-dependent kinase 2 (Homo sapiens, UniProt P24941); experiment: CDK2 kinase inhibitors, off-target check, dose response, selectivity assay for Dyrk1A inhibitor project, biochemical, cherry-picked samples (AID 602127)
INS1 [14] = experiment: protection of INS-1E cells from cytokine death, dose response, ATP luminescence, dry powder (AID 488844); format: functional, cell-based; conditions: Rattus norvegicus
INS1 [15] = experiment: protection from cytokine-induced mitochondrial depolarization, dose response, cell-based, INS-1E, JC-1 fluorescence ratio, dry powder (AID 488931); format: functional; conditions: Rattus norvegicus
[16] = target: T2, Short transient receptor potential channel 4 (Mus musculus, UniProt Q9QUQ5); experiment: TRPC4 inhibitor concentration-response, dose response, cell-based, HEK293 TRPC4/mu-opioid, DAMGO stimulus, Fluo-4 (AID 492994); format: functional
T2 sequence (Q9QUQ5 whole entry): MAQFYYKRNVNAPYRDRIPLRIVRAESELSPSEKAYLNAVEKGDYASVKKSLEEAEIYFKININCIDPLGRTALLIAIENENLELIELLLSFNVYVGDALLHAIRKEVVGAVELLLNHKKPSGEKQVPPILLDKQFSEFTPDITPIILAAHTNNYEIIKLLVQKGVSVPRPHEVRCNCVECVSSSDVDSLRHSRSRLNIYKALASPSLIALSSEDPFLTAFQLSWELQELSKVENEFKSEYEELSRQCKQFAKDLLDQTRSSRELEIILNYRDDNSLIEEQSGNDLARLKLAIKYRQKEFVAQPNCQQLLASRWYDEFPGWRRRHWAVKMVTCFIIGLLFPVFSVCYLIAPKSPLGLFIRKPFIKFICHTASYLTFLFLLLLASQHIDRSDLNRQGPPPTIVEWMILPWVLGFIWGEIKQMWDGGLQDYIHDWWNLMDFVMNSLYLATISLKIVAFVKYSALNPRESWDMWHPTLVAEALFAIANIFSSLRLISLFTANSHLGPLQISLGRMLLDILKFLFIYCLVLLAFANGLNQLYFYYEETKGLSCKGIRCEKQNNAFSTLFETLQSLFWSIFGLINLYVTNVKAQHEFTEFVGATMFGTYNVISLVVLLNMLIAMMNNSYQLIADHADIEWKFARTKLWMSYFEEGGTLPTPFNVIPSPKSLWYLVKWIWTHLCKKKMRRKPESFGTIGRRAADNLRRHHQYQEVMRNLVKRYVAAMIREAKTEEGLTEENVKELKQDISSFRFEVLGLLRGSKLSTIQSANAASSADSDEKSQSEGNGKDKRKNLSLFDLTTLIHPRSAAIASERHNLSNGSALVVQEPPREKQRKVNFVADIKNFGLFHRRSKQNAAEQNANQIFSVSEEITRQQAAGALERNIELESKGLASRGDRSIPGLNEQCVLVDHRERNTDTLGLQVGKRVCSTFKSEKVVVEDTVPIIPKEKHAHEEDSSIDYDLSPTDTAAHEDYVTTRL

[17] = target: Short transient receptor potential channel 6 (Mus musculus, UniProt Q61143); experiment: TRPC6 inhibition potency of TRPC4 inhibitor analogs, dose response, selectivity assay for selective TRPC4 inhibitor project, HEK293 cells, membrane potential dye, IC50 (AID 492987); format: functional, cell-based
Short transient receptor potential channel 6, sequence (Q61143 whole entry): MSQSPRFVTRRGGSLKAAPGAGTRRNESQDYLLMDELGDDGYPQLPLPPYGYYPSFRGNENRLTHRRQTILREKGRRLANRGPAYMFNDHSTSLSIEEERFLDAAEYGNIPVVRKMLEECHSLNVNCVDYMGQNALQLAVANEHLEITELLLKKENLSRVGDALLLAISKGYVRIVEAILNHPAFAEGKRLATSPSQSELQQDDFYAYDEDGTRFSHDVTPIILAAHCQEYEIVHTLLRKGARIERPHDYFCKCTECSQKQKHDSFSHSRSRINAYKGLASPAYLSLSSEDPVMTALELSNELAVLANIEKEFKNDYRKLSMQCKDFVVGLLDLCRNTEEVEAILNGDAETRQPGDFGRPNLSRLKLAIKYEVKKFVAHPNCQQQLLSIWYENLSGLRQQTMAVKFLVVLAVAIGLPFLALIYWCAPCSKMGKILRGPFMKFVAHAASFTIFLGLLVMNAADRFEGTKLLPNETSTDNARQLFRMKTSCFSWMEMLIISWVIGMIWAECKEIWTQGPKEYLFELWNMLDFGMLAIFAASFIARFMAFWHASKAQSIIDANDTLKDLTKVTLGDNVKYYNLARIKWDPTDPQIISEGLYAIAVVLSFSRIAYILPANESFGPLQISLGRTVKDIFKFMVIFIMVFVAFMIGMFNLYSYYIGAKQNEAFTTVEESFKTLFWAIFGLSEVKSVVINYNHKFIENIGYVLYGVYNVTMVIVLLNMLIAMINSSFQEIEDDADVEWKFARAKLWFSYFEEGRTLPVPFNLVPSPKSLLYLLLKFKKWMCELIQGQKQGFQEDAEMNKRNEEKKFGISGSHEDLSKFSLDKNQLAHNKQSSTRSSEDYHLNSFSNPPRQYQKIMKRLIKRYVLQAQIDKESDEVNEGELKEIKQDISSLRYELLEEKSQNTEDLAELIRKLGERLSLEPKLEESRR

[18] = target: T2, Short transient receptor potential channel 4; experiment: SAR Analysis for the identification of selective inhibits of the transient receptor potential cation channel C4 (TRPC4): Automated Electrophysiology. [Related pubchem assays (depositor defined):AID2256]; format: functional
[19] = Vero cell cytotoxicity, dose response, cytotoxicity control for Vif-APOBEC3G degradation inhibitor project, Vero cells (AID 1117358); format: functional; conditions: Human immunodeficiency virus 1, Vero
CHO-K1 = experiment: (§1) Counterscreen for antagonists of the orexin 1 receptor (OX1R; HCRTR1): Homogeneous time resolved fluorescence (HTRF)-based cell-based dose response assay to identify antagonists of the parental CHO-K1 cell line. [Related pubchem assays (depositor defined):AID434989, AID435008, AID463079, AID485270, AID492963, AID492964, AID492965, AID493232, AID504699, AID504701]; format: functional; conditions: Cricetulus griseus
BJ [20] = experiment: cells; format: functional, cell-based; conditions: Homo sapiens
BJ [21] = experiment: cytotoxicity toward BJ-TERT-LT-ST fibroblasts, dose response, cell-based, RAS-independent, luminescence (AID 1935); format: functional; conditions: Homo sapiens;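 also: BJ fibroblasts immortalized with TERT plus LT and ST oncogenes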
[22] = as §1, with “Fluorescence-based” for “Homogeneous time resolved fluorescence (HTRF)-based”, “cell-based high throughput” for “cell-based”, “CHO” for “CHO-K1”; format: functional
[23] = cytotoxicity toward DRD oncogenic fibroblasts, dose response, cell-based, non-viral oncogenic, luminescence (AID 1934); format: functional; conditions: Homo sapiens
Orexin receptor type 2 [24] = target: T3, Orexin receptor type 2 (Homo sapiens, UniProt O43614); experiment: Counterscreen assay for antagonists of the orexin 1 receptor (OX1R; HCRTR1): Homogeneous Time Resolved Fluorescence (HTRF)-based cell-based dose response assay for antagonists of the orexin 2 receptor (OX2R; HCRTR2), run by assay provider.; format: functional
T3 sequence (O43614 whole entry): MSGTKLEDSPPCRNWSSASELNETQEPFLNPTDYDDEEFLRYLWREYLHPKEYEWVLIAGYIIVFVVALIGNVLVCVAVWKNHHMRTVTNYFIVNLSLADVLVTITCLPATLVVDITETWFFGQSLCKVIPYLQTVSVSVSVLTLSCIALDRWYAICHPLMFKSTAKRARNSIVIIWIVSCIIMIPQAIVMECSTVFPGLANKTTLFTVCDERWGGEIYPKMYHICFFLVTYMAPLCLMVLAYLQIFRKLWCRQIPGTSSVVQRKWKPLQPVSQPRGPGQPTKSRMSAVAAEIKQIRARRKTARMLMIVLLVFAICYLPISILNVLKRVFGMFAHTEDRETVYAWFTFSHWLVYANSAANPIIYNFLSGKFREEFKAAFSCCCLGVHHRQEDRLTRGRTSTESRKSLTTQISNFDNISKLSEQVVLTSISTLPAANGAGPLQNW

[25] = target: T4, Orexin/Hypocretin receptor type 1 (Homo sapiens, UniProt O43613); experiment: (§2) Fluorescence-based cell-based high throughput dose response assay for antagonists of the orexin 1 receptor (OX1R; HCRTR1). [Related pubchem assays (depositor defined):AID434989, AID435008, AID463079, AID485270, AID492963, AID492964, AID492965, AID493232, AID504717, AID504718]; format: functional
T4 sequence (O43613 whole entry): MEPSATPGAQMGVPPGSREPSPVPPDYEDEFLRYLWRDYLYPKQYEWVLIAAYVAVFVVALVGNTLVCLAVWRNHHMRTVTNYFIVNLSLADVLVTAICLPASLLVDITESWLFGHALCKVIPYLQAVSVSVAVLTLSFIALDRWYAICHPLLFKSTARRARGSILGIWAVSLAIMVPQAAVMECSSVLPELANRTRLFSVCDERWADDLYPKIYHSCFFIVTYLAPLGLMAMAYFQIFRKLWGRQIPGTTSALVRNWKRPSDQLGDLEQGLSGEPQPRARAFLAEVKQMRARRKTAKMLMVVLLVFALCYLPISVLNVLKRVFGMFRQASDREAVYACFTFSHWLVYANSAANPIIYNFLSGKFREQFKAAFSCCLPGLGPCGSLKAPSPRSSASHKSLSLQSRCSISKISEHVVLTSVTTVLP

[26] = target: T4, Orexin/Hypocretin receptor type 1; experiment: as §2, with “Homogeneous Time Resolved Fluorescence (HTRF)-based” for “Fluorescence-based”; format: functional
BJ [27] = experiment: cytotoxicity toward BJ-TERT fibroblasts, dose response, cell-based, RAS-independent, luminescence (AID 1933); format: functional; conditions: Homo sapiens
Orexin receptor type 2 [28] = target: T3, Orexin receptor type 2; experiment: Counterscreen assay for antagonists of the orexin 1 receptor (OX1R; HCRTR1): Fluorescence-based cell-based dose response assay for antagonists of the orexin 2 receptor (OX2R; HCRTR2), run by assay provider.; format: functional
[29] = target: Sphingosine 1-phosphate receptor 1 (Homo sapiens, UniProt P21453); experiment: Late-stage fluorescence-based dose-response cell-based counterscreen assay to identify agonists of the Sphingosine 1-Phosphate Receptor 4 (S1P4): Sphingosine 1-Phosphate Receptor 1 (S1P1) agonist assay Set 2.; format: functional
[30] = target: Sphingosine 1-phosphate receptor 3 (Homo sapiens, UniProt Q99500); experiment: Late-stage fluorescence-based dose-response cell-based counterscreen assay to identify agonists of the Sphingosine 1-Phosphate Receptor 4 (S1P4): Sphingosine 1-Phosphate Receptor 3 (S1P3) agonist assay Set 2.; format: functional
Sphingosine 1-phosphate receptor 3, sequence (Q99500 whole entry): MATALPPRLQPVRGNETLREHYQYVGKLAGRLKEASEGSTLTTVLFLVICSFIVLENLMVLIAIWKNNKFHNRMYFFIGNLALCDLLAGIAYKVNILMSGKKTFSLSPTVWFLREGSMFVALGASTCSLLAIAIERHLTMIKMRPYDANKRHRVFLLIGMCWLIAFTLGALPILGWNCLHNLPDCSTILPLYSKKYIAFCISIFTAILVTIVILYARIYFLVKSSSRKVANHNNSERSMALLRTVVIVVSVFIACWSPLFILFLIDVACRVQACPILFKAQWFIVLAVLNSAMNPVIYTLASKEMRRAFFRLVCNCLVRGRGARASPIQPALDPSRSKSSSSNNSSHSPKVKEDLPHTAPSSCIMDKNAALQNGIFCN

[31] = target: Sphingosine 1-phosphate receptor 5 (Homo sapiens, UniProt Q9H228); experiment: S1P5 receptor agonists, human, late-stage follow-up, counter-screen for S1P4 agonist project, cell-based, fluorescence, set 2 (AID 504867); format: functional
Sphingosine 1-phosphate receptor 5, sequence (Q9H228 whole entry): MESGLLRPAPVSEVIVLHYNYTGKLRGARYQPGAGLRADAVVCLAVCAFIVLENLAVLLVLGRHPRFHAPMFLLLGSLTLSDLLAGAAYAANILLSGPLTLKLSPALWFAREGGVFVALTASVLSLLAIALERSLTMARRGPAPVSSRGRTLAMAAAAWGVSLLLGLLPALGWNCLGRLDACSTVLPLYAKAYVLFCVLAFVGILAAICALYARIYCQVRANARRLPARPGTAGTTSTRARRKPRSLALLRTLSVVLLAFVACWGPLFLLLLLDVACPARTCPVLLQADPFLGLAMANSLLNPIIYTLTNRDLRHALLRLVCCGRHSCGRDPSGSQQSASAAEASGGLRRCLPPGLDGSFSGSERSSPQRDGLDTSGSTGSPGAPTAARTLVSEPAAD

[32] = target: Sphingosine 1-phosphate receptor 2 (Homo sapiens, UniProt O95136); experiment: S1P2 receptor agonists, human, late-stage follow-up, counter-screen for S1P4 agonist project, cell-based, fluorescence, set 2 (AID 504873); format: functional
Sphingosine 1-phosphate receptor 2, sequence (O95136 whole entry): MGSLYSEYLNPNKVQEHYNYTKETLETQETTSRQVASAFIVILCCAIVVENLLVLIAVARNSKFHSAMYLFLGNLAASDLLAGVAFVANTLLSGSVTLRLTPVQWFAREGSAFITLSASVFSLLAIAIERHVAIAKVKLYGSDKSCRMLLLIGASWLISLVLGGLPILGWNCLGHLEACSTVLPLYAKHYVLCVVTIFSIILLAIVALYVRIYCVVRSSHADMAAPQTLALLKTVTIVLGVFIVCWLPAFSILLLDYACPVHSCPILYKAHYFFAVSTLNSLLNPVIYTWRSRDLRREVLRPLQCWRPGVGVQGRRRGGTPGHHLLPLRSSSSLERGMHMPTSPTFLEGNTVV

[33] = target: Dual specificity protein phosphatase 3 (Homo sapiens, UniProt P51452); experiment: SAR VHR1 Fluorescent Assay for In Vitro dose response studies Set 3. [Related pubchem assays (depositor defined):AID1654, AID1661, AID1878]; format: functional
Dual specificity protein phosphatase 3, sequence (P51452 whole entry): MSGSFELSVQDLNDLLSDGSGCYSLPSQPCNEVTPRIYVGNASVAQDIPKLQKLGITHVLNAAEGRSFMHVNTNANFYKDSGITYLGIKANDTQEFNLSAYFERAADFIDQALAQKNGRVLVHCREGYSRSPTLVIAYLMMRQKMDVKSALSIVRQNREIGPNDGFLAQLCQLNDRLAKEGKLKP

CC1CCN(c2nc(NCc3ccco3)nc(N)c2[N+](=O)[O-])CC1
CC50 (MDCK [1]): 11.4 µM (active) | CC50 (Vero): > 40 µM (active) | IC50 (MDCK [2]): 2.57 µM (active)

O=C1N(Cc2cccc(Cl)c2)C[C@@H]2C[C@@H](c3cccn3-c3ccccn3)N3CCC[C@@]123
EC50 [3]: 8.22 µM (active)

Cc1ccc(C(=O)C2=C(O)C(=O)N(Cc3ccco3)C2c2cccc(Cl)c2)o1 (configuration not stated)
CC50 [4]: > 100 µM (inactive) | IC50 (NS3): 5.36 µM (active)

CC(C)Sc1nc(SCC(=O)NCc2ccco2)c2c3c(sc2n1)COC(C)(C)C3
AC50 [5]: > 52 µM (inactive) | IC50 [6]: 8.37 µM (active)

Cc1ccccc1NC(=O)CCS(=O)(=O)c1ccc(Br)cc1
EC50 [7]: 11.4 µM (active)

O=C(/C=C\c1cccs1)N1CCN(Cc2ccc3c(c2)OCO3)CC1
CC50 [8]: > 100 µM (active) | CC50 [9]: > 50 µM (active)

O=C(C1CC1)N1CCN(c2ccnc3cc(Cl)ccc23)CC1
AC50 (Candida albicans [10]): 12.4 µM (active) | AC50 (NIH3T3): 1.7 µM (active) | AC50 (Candida albicans [11]): 3.25 µM (active)

c1cncc(CNc2nccc(-c3ccc4c(c3)OCO4)n2)c1
AC50 [12]: 0.00791 µM (active) | AC50 [13]: 14.3 µM (active)

COc1ccc(S(=O)(=O)N(C)C[C@@H]2Oc3c(NC(=O)Nc4cccc5ccccc45)cccc3C(=O)N([C@@H](C)CO)C[C@@H]2C)cc1
AC50 (INS1 [14]): 37.6 µM (active) | AC50 (INS1 [15]): 48 µM (active)

Cc1ccc2nc(N3CCCCC3)cc(C)c2c1
IC50 [16]: 10.2 µM (active) | IC50 [17]: 8.58 µM (active) | IC50 [18]: 5.49 µM (active)

Cc1nn(-c2ccccc2)c(C)c1/C=N/NC(=O)c1cc(-c2ccccc2)[nH]n1
CC50 [19]: 8.77 µM (active) | IC50 (CHO-K1): > 66.2 µM (inactive) | EC50 (BJ [20]): 37.5 µM (inconclusive) | EC50 (BJ [21]): > 150 µM (inconclusive) | IC50 [22]: > 49.8 µM (inactive) | EC50 [23]: 0.659 µM (inconclusive) | IC50 (Orexin receptor type 2 [24]): 18.8 µM (inactive) | IC50 [25]: 3.67 µM (active) | IC50 [26]: 1.75 µM (active) | EC50 (BJ [27]): 0.308 µM (active) | IC50 (Orexin receptor type 2 [28]): 20.6 µM (inactive)

C/N=C1/SC(=Cc2cc(C)n(Cc3ccc(F)cc3F)c2C)C(=O)N1C
EC50 [29]: 0.287 µM (active) | EC50 [30]: > 25 µM (inactive) | EC50 [31]: 0.0371 µM (active) | EC50 [32]: 13.1 µM (inactive)

COc1cccc2sc(NC(=O)c3ccc(C#N)cc3)nc12
IC50 [33]: 57.6 µM (active)
